Experimental data: US11512090B2, “Muscarinic acetylcholine M1 receptor antagonists” (PIPELINE THERAPEUTICS, INC., priority 2018, dated 2022)
Read-outs that look alike come from different tables or passages of the source.

Key:
Format in all cases: cell-based
[1] = biological target: T1, human M1 receptor (Homo sapiens, UniProt P11229); experiment: In vitro functional assay of muscarinic acetylcholine receptor activity (aequorin calcium flux, antagonist mode vs EC80 acetylcholine), M1
T1 sequence (P11229 1-460): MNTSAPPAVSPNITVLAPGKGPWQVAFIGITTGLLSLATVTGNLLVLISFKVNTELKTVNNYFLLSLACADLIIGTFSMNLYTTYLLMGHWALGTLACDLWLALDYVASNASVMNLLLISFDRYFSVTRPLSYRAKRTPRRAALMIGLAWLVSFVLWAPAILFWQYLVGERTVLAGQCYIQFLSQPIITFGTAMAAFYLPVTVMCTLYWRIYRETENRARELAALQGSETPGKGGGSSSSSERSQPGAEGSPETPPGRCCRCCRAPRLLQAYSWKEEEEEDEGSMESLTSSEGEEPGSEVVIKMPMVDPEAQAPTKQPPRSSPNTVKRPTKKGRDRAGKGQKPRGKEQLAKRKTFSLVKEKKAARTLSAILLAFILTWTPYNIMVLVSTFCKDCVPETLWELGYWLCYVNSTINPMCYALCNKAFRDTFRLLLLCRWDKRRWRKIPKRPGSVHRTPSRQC
Method in brief: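 CHO-K1 cells stably co-expressing human M1 and aequorin were loaded with 5 uM coelenterazine h for 4 h at room temperature in the dark. IC50 came from the drop in luminescence.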

[2] = biological target: M3 (Homo sapiens, UniProt P20309); experiment: In vitro functional assay of muscarinic acetylcholine receptor activity, M3
[3] = biological target: T2, M2 (Homo sapiens, UniProt P08172); experiment: In vitro functional assay of muscarinic acetylcholine receptor activity, M2; details: antagonist IC50 at M2; read-out: M2 IC50
T2 sequence (P08172 1-466): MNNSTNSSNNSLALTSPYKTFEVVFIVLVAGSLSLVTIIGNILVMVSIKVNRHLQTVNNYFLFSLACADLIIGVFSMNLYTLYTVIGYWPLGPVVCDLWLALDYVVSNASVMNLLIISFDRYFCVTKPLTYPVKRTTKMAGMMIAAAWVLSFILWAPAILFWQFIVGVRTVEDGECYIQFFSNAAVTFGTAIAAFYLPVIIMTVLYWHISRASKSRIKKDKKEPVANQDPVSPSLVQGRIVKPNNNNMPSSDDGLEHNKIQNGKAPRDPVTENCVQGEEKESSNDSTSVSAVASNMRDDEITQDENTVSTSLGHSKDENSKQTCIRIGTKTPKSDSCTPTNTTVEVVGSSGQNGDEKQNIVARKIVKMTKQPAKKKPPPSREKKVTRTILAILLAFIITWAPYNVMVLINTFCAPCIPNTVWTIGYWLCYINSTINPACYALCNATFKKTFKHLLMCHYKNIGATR

[4] = antagonist IC50 at M3, read-out: M3 IC50
[5] = CHO-K1 cells stably expressing human M1 receptor with Aequorin, decrease in EC80 acetylcholine response, read-out: M1 IC50

M3, sequence (P20309 whole entry): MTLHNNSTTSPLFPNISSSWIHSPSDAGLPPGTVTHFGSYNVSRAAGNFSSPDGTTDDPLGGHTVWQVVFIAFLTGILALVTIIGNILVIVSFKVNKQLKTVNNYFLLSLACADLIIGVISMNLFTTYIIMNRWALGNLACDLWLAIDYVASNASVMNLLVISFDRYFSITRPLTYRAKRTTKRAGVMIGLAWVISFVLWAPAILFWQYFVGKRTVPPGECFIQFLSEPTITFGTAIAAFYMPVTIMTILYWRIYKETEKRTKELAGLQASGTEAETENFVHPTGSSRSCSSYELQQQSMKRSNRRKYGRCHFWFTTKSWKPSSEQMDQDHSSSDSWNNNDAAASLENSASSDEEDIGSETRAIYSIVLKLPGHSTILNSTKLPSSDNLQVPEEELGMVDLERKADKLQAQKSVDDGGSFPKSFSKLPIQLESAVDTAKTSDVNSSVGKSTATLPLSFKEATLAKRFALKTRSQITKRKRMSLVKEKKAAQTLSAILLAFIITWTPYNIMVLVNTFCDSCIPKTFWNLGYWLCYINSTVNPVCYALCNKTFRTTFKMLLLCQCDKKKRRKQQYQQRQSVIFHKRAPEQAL

Structure (SMILES): O=C(CCNCc1c(F)ccc2nccn12)N1CC2CCC(C1)N2c1ccc(Cl)cn1 [Example 167, 1-[8-(5-chloropyridin-2-yl)-3,8-diazabicyclo[3.2.1]octan-3-yl]-3-[({6-fluoroimidazo[1,2-a]pyridin-5-yl}methyl)amino]propan-1-one]
- IC50 [1]: < 0.1 µM
- IC50 [2, 4]: > 10 µM
- IC50 [3]: 1 to 10 µM

Structure (SMILES): N#Cc1cc(N2C3CCC2CN(C(=O)CCS(=O)(=O)c2cccc4ncsc24)C3)ccc1F [Example 122, 5-{3-[3-(1,3-benzothiazole-7-sulfonyl)propanoyl]-3,8-diazabicyclo[3.2.1]octan-8-yl}-2-fluorobenzonitrile]
- IC50 [1]: < 0.1 µM
- IC50 [2]: < 0.1 µM
- IC50 [3]: > 10 µM

Structure (SMILES): Cc1cc(F)cnc1N1CCN(C(=O)COCc2cccc3ncsc23)[C@@H](C)C1 [Example 88, (S)-2-(benzo[d]thiazol-7-ylmethoxy)-1-(4-(5-fluoro-3-methylpyridin-2-yl)-2-methylpiperazin-1-yl)ethan-1-one]
- IC50 [1, 5]: 1 to 10 µM
- IC50 [2, 4]: > 10 µM
- IC50 [3]: 1 to 10 µM

Structure (SMILES): N#Cc1ccc(N2C3CCC2CN(C(=O)[C@H]2C[C@H](Oc4cccc5ncsc45)C2)C3)nc1 [Example 197, 6-{3-[(1r,3r)-3-(1,3-benzothiazol-7-yloxy)cyclobutanecarbonyl]-3,8-diazabicyclo[3.2.1]octan-8-yl}pyridine-3-carbonitrile]
- IC50 [1]: 0.1 to 1 µM
- IC50 [2, 4]: > 10 µM
- IC50 [3]: > 10 µM

Structure (SMILES): N#Cc1ccc(N2C3CCC2CN(C(=O)CCOCc2cccc4ncnn24)C3)nc1 [Example 39, 6-{3-[3-({[1,2,4]triazolo[1,5-a]pyridin-5-yl}methoxy)propanoyl]-3,8-diazabicyclo[3.2.1]octan-8-yl}pyridine-3-carbonitrile]
- IC50 [1]: < 0.1 µM
- IC50 [2, 4]: 1 to 10 µM
- IC50 [3]: 1 to 10 µM

Structure (SMILES): O=C(CCS(=O)(=O)c1c(F)ccc2nccn12)N1CC2CCC(C1)N2c1ccc(F)cn1 [Example 121, 3-({6-fluoroimidazo[1,2-a]pyridin-5-yl}sulfonyl)-1-[8-(5-fluoropyridin-2-yl)-3,8-diazabicyclo[3.2.1]octan-3-yl]propan-1-one]
- IC50 [1]: < 0.1 µM
- IC50 [2, 4]: < 0.1 µM
- IC50 [3]: 0.1 to 1 µM

Structure (SMILES): N#Cc1ccc(N2[C@@H]3CC[C@H]2CN(C(=O)COCc2cccc4nccnc24)C3)nc1 [Example 38, 6-((1R, 5S)-3-(2-(quinoxalin-5-ylmethoxy)acetyl)-3,8-diazabicyclo[3.2.1]octan-8-yl)nicotinonitrile]
- IC50 [1]: < 0.1 µM
- IC50 [2, 4]: 1 to 10 µM
- IC50 [3]: 0.1 to 1 µM

Structure (SMILES): O=C(CCNCc1c(F)ccc2nccn12)N1CC2CCC(C1)N2c1ccc(C2CC2)cn1 [Example 172, 1-[8-(5-cyclopropylpyridin-2-yl)-3,8-diazabicyclo[3.2.1]octan-3-yl]-3-[({6-fluoroimidazo[1,2-a]pyridin-5-yl}methyl)amino]propan-1-one]
- IC50 [1, 5]: 1 to 10 µM
- IC50 [2, 4]: > 10 µM
- IC50 [3]: 1 to 10 µM

Structure (SMILES): O=C(COCCc1cccn2ncnc12)N1CC2CCC(C1)N2c1ccc(Cl)cn1 [Example 179, 1-[8-(5-chloropyridin-2-yl)-3,8-diazabicyclo[3.2.1]octan-3-yl]-2-(2-{[1,2,4]triazolo[1,5-a]pyridin-8-yl}ethoxy)ethan-1-one]
- IC50 [1]: < 0.1 µM
- IC50 [2, 4]: > 10 µM
- IC50 [3]: > 10 µM

Structure (SMILES): Cc1ncccc1N1CCN(C(=O)CCCc2cccc3ncccc23)[C@@H](C)C1 [Example 93, (S)-1-(2-methyl-4-(2-methylpyridin-3-yl)piperazin-1-yl)-4-(quinolin-5-yl)butan-1-one]
- IC50 [1, 5]: > 10 µM
- IC50 [2, 4]: > 10 µM
- IC50 [3]: > 10 µM

Structure (SMILES): N#Cc1ccc(N2CCN(C(=O)CCCc3cccc4ncoc34)CC2)nc1 [Example 129, 6-{4-[4-(1,3-benzoxazol-7-yl)butanoyl)piperazin-1-yl}pyridine-3-carbonitrile]
- IC50 [1, 5]: 0.1 to 1 µM
- IC50 [2, 4]: > 10 µM
- IC50 [3]: 1 to 10 µM

Structure (SMILES): N#Cc1ccc(N2C3CCC2CN(C(=O)CCOCc2cccc4ncc(C(F)(F)F)n24)C3)nc1 [Example 188, 6-[3-(3-{[3-(trifluoromethyl)imidazo[1,2-a]pyridin-5-yl)methoxy}propanoyl)-3,8-diazabicyclo[3.2.1]octan-8-yl)pyridine-3-carbonitrile]
- IC50 [1, 5]: 1 to 10 µM
- IC50 [2, 4]: > 10 µM
- IC50 [3]: 1 to 10 µM

Structure (SMILES): O=C(CCNCc1cccc2ncnn12)N1CC2CCC(C1)N2c1ccc(-c2ccccc2)cn1 [Example 193, 1-[8-(5-phenylpyridin-2-yl)-3,8-diazabicyclo[3.2.1]octan-3-yl]-3-[({[1,2,4]triazolo[1,5-a]pyridin-5-yl}methyl)amino]propan-1-one]
- IC50 [1, 5]: 1 to 10 µM
- IC50 [2, 4]: 1 to 10 µM
- IC50 [3]: > 10 µM

Structure (SMILES): Cc1nc2cccc(S(=O)(=O)CCCC(=O)N3CCN(c4ncc(F)cc4C)C[C@@H]3C)c2o1 [Example 98, (S)-1-(4-(5-fluoro-3-methylpyridin-2-yl)-2-methylpiperazin-1-yl)-4-((2-methylbenzo[d]oxazol-7-yl)sulfonyl)butan-1-one]
- IC50 [1, 5]: 1 to 10 µM
- IC50 [2, 4]: > 10 µM
- IC50 [3]: 1 to 10 µM

Structure (SMILES): O=C(CCS(=O)(=O)c1cccc2ncsc12)N1CCN(c2ccnc(C(F)(F)F)c2)CC1 [Example 99, 3-(benzo[d]thiazol-7-ylsulfonyl)-1-(4-(2-(trifluoromethyl)pyridin-4-yl)piperazin-1-yl)propan-1-one]
- IC50 [1, 5]: 1 to 10 µM
- IC50 [2, 4]: > 10 µM
- IC50 [3]: 1 to 10 µM

Structure (SMILES): Cc1cc(F)cnc1N1CCN(C(=O)CCCc2cccc3nccn23)[C@@H](C)C1 [Example 84, (S)-1-(4-(5-fluoro-3-methylpyridin-2-yl)-2-methylpiperazin-1-yl)-4-(imidazo[1,2-a]pyridin-5-yl)butan-1-one]
- IC50 [1, 5]: 1 to 10 µM
- IC50 [2, 4]: > 10 µM
- IC50 [3]: > 10 µM

Structure (SMILES): O=C(CCCc1cccc2ncccc12)N1CCN(c2ccncc2)CC1 [Example 4, 1-(4-(pyridin-4-yl)piperazin-1-yl)-4-(quinolin-5-yl)butan-1-one]
- IC50 [1, 5]: < 0.1 µM
- IC50 [2, 4]: 1 to 10 µM
- IC50 [3]: 1 to 10 µM

Structure (SMILES): O=C(CCNCc1cccc2ncsc12)N1CC2CCC(C1)N2c1ccc(C(F)(F)F)cn1 [Example 148, 3-{[(1,3-benzothiazol-7-yl)methyl]amino}-1-{8-[5-(trifluoromethyl)pyridin-2-yl]-3,8-diazabicyclo[3.2.1]octan-3-yl}propan-1-one]
- IC50 [1]: 0.1 to 1 µM
- IC50 [2, 4]: 1 to 10 µM
- IC50 [3]: 1 to 10 µM

Structure (SMILES): Cc1nc2cccc(CNCCC(=O)N3CC4CCC(C3)N4c3ccc(C#N)cn3)n2n1 [Example 168, 6-(3-{3-[({2-methyl-[1,2,4]triazolo[1,5-a]pyridin-5-yl}methyl)amino]propanoyl}-3,8-diazabicyclo[3.2.1]octan-8-yl)pyridine-3-carbonitrile]
- IC50 [1]: 0.1 to 1 µM
- IC50 [2, 4]: > 10 µM
- IC50 [3]: 1 to 10 µM

Structure (SMILES): Cn1cnc2cccc(S(=O)(=O)CCC(=O)N3CCN(c4ccc(C(F)(F)F)cn4)CC3)c21 [Example 149, 3-[(1-methyl-1H-1,3-benzodiazol-7-yl)sulfonyl]-1-{4-[5-(trifluoromethyl)pyridin-2-yl]piperazin-1-yl}propan-1-one]
- IC50 [1, 5]: < 0.1 µM
- IC50 [2, 4]: 1 to 10 µM
- IC50 [3]: 0.1 to 1 µM

Structure (SMILES): N#Cc1ccc(N2C3CCC2CN(C(=O)CCOCc2cccc4nccn24)C3)nc1 [Example 186, 6-{3-[3-({imidazo[1,2-a]pyridin-5-yl}methoxy)propanoyl]-3,8-diazabicyclo[3.2.1]octan-8-yl}pyridine-3-carbonitrile]
- IC50 [1]: < 0.1 µM
- IC50 [2, 4]: 1 to 10 µM
- IC50 [3]: > 10 µM
